Among the data in patent publication EP0394983A2, “Anthracycline derivatives with cytostatic activity” (priority 1989, dated 1990) are IC50 and Stabilität values, retold here.

Each structure is given as a SMILES string. In brackets after ≈: the same amount, converted by molar mass. Like-named read-outs stand apart in the source and are kept apart here.

Data set [1] deals with L1210 Leukämiezellen. The data set is described as follows: Colony formation of L1210 leukaemia cells in soft agar (cytotoxicity in vitro). Format: cell-based, Maus. The settings on record: Mus musculus. From the text:
Die zytostatische Wirksamkeit der erfindungsgemäßen Verbindungen wurde anhand von L1210 Leukämiezellen der Maus getestet. Hierzu wurde die Koloniebildung von L1210 Leukämiezellen in Agarplatten herangezogen. Diese Methode dient zum Nachweis des Einflusses der Testsubstanzen auf das Wachstumsverhalten der Zellen über 1 Stunde oder über mehrere Generationen. Bei einer Zellzykluszeit von 10-12 Stunden werden dabei in der Testzeit von 7 Tagen etwa 14 aufeinanderfolgende Generationen beobachtet. Die erfindungsgemäßen zytostatisch wirksamen Substanzen bewirken in diesem Test eine Reduktion der zu beobachtenden Koloniezahl gegenüber einer unbehandelten Kontrollprobe.
Verfahrensweise zur Ermittlung der Koloniebildung von L1210 Leukämiezellen in Soft-Agar
500 Leukämiezellen pro Platte wurden mit unterschiedlichen Konzentrationen der Testsubstanz 1 Stunde bei 37°C inkubiert. Anschließend wurden die Zellen zweimal mit McCoy5A-Medium gewaschen und schließlich in Petrischalen nach Zugabe von 0,3 % Agar ausgegossen. Kontrollen wurden lediglich mit frischem Medium inkubiert. Anstelle der einstündigen Inkubation wurden in manchen Fällen unterschiedliche Konzentrationen und Testsubstanzen der oberen Agarschicht zugemischt, um so eine kontinuierliche Exposition der Zellen über die gesamte Inkubationszeit zu erreichen. Nach Erstarren des Agars wurden die Platten im Brutschrank 7 Tage bei 37°C inkubiert (5 Vol.-% CO₂, 95 % relative Luftfeuchtigkeit). Anschließend wurde die Zahl der entstandenen Kolonien mit einem Durchmesser von mehr als 60 µm gezählt. Die Ergebnisse wurden angegeben als Koloniezahl in behandelten Agarplatten in Prozent der unbehandelten Kontrolle. Aus der so erhalte nen Dosiswirkungskurve wurde die IC₅₀ als Maß für die Wirksamkeit der Substanz ermittelt. Die Ergebnisse für die hier beschriebenen Verbindungen im Vergleich zu Adriamycin sind in Tabelle 1 zusammengefaßt.

Data set [2] in a line: Stability under weakly acidic conditions (qualitative statement). Format: physicochemical. The settings on record: unter schwach sauren Bedingungen.
Setting [3] is: L1210, 168 h, continuous exposure over the whole incubation time (7 days, 37°C), substance mixed into upper agar layer, colony count vs untreated control, read-out: Dauerinku-bation IC50.
[4] abbreviates: L1210, 1 h incubation at 37°C, cells washed, then 7 days in agar, colony count vs untreated control, read-out: 1 h-Inku-bation IC50.

`CC[C@@]1(O)C[C@H](O[C@H]2C[C@H](N(C)CCN(C)CCNC)[C@H](O)[C@H](C)O2)c2c(O)c3c(c(O)c2[C@H]1O)C(=O)c1cccc(O)c1C3=O` [Verbindung 3, 7-0-(3′-N-(N,N′-Dimethyl-ethylendiaminoethyl)-3′-N-methyl-α-L-daunosaminyl)-β-rhodomycinon]: the IC50 (as a rule, the point on the concentration scale where inhibition reaches its midpoint) in data set [1] (setting [3]) is 0.1 mg/L (≈ 0.155 µM); in data set [1] (setting [4]), 0.6 mg/L (≈ 0.932 µM).
Consider `CC[C@@]1(O)C[C@H](O[C@H]2C[C@H](N(C)CCCl)[C@H](O)[C@H](C)O2)c2c(O)c3c(c(O)c2[C@H]1O)C(=O)c1cccc(O)c1C3=O` [Verbindung 1, 7-0-(3′-N-Chlorethyl-3′-N-methyl-α-L-daunosaminyl)-β-rhodomycinon], for which the IC50 in data set [1] (L1210, 168 h, read-out: Dauerinku-bation IC50) was 0.03 mg/L (≈ 0.0507 µM); in data set [1] (L1210, read-out: 1 h-Inku-bation IC50) it was 0.11 mg/L (≈ 0.186 µM). The Stabilität entry in data set [2] was “relativ stabil”.
Turning to `CC[C@@]1(O)C[C@H](O[C@H]2C[C@H](N(C)CCN(C)C)[C@H](O)[C@H](C)O2)c2c(O)c3c(c(O)c2[C@H]1O)C(=O)c1cccc(O)c1C3=O` [Verbindung 2, 7-0-(3′-N-Dimethylaminoethyl-3′-N-methyl-α-L-,daunosaminyl)-β-rhodomycinon], the half-maximal inhibitory concentration (IC50) is 0.033 mg/L (≈ 0.0549 µM) in data set [1] (setting [3]) and 0.12 mg/L (≈ 0.2 µM) in data set [1] (setting [4]).
For the molecule `CC[C@@]1(O)C[C@H](O[C@H]2C[C@H](N(C)CCNCCc3c[nH]cn3)[C@H](O)[C@H](C)O2)c2c(O)c3c(c(O)c2[C@H]1O)C(=O)c1cccc(O)c1C3=O` [Verbindung 4, 7-0-(3′-N-Histaminoethyl-3′-N-methyl-α-L-daunosaminyl)-β-rhodomycinon], the IC50 in data set [1] (setting [3]) came out at 0.4 mg/L (≈ 0.6 µM); in data set [1] (setting [4]), 1.2 mg/L (≈ 1.8 µM).
